Test results published in patent publication US20230035763A1, “METHODS OF TREATING CANCER USING TUBULIN BINDING AGENTS” (BeyondSpring Pharnaceuticals, Inc., priority 2018, published 2023).

How the values were obtained:
OVXF899, OVXF1023 = assay: CellTiter-Blue cell viability assay, ovarian cell lines (Inactive group); type: cell-based, human; set-up: key: Active: active (IC70<1 µM); Inactive: inactive (IC70>1 µM, and usually >10 µM); details: IC70 class, 24 h treatment + 48 h compound-free
Description: (§1) Working stock solution of the test compounds (Plinabulin, Docetaxel and Paclitaxel) were prepared in DMSO at a concentration of 3.14 (Plinabulin) or 3.3 mM (Docetaxel and Paclitaxel), and small aliquots were stored at −20° C. On each day of an experiment, a frozen aliquot of the working stock solutions was thawed and stored at room temperature prior to and during treatment. All liquid handling steps were done by the Tecan Freedom EVO 200 platform. First, serial half-log dilutions of the DMSO working stock solution were made in DMSO. The DMSO dilutions were then diluted 1:22 into cell culture medium in an intermediate dilution plate. Finally, 10 μl taken from the intermediate dilution plate was transferred to 140 μl/well of the final assay plate. […] Briefly, cells were harvested from exponential phase cultures, counted and plated in 96-well flat-bottom microtiter plates at a cell density of 4,000 to 60,000 cells/well dependent on the cell line's growth rate. […] After the initial application of the compounds for 24 hours, the compound-containing media was exchanged to media without compounds and incubation was continued for a further 48 hours until read-out. […] Following incubation with CellTiter-Blue® reagent for up to four hours, fluorescence (FU) was measured by using the Enspire Multimode Plate Reader (excitation λ=570 nm, emission λ=600 nm). […]

PC-3 = assay: CellTiter-Blue cell viability assay, prostate cell line (Inactive group); type: cell-based, human; set-up: key: Active: active (IC70<1 µM); Inactive: inactive (IC70>1 µM, and usually >10 µM); details: Prostate: PC-3; IC70 class, 24 h treatment + 48 h compound-free
Description: as §1

[1] = system: CAL-51, HS578T, JIMT-1, MCF10A, MX1; assay: CellTiter-Blue cell viability assay, breast cell lines (Active group); type: cell-based, human; set-up: key: Active: active (IC70<1 µM); Inactive: inactive (IC70>1 µM, and usually >10 µM); details: Breast: CAL-51, HS578T, IC70 class, 24 h treatment + 48 h compound-free
Description: as §1

[2] = system: LXFA289, LXFA526, LXFA629, LXFA983, A549, HOP-62, NCI-H322M, NCI-H226, SK-MES-1, A427, NCI-H1299, H2171, SCLC-21H; assay: CellTiter-Blue cell viability assay, lung cell lines (Inactive group); type: cell-based, human; set-up: key: Active: active (IC70<1 µM); Inactive: inactive (IC70>1 µM, and usually >10 µM); details: Lung: LXFA289, LXFA526, LXFA629, LXFA983, A549, HOP-62, NCI-H322M, IC70 class, 24 h treatment + 48 h compound-free
Description: as §1

[3] = system: 43 human cancer cell lines (breast, lung, prostate, ovarian or CNS); assay: CellTiter-Blue cell viability assay, IC70, panel of human cancer cell lines; type: cell-based; details: 24 h treatment, then 48 h without plinabulin
Excerpt: Plinabulin is a tubulin targeted agent that binds near the colchicine site in β-tubulin and is being tested in a Phase 3 clinical study for the treatment of non-small cell lung cancer. The colchicine site is distinct from the binding site of taxanes (e.g. Paclitaxel and docetaxel), and binding site and other differences between tubulin targeted agents are often associated with differing effects on biological functions, disease outcomes and safety profiles. Additional indications are being considered for plinabulin so a model for selecting especially responsive patients would be of significant value. As a first step towards building this model, the in vitro activity of Plinabulin against 43 human cancer cell lines (breast, lung, prostate, ovarian or CNS), previously characterized for mRNA expression with the Affymetrix HGU133 Plus 2.0 array, was evaluated. Although screening for in vitro anticancer activity is typically performed with constant treatment of the agent for 48-72 hours, cells were treated for only 24 hours with plinabulin and then cultured for another 48 hours without plinabulin.
Typically anticancer activity is judged at the 50% effect level (50% reduction in viable tumor cells), but viable cell concentration are quantified here with a Cell Titer-Blue Assay to find the concentration causing a 70% reduction in the quantity of viable tumor cells (IC70). […]

[4] = system: A-172, SF-539, SNB-78, U-251, U-87MG; assay: CellTiter-Blue cell viability assay, CNS cell lines (Active group); type: cell-based, human; set-up: key: Active: active (IC70<1 µM); Inactive: inactive (IC70>1 µM, and usually >10 µM); details: CNS: A-172, SF-539, SNB-78, U-251, U-87MG; IC70 class, 24 h treatment + 48 h compound-free
Description: as §1

[5] = system: 22Rv1, DU-145, LNCaP, PC-3M; assay: CellTiter-Blue cell viability assay, prostate cell lines (Active group); type: cell-based, human; set-up: key: Active: active (IC70<1 µM); Inactive: inactive (IC70>1 µM, and usually >10 µM); details: Prostate: 22Rv1, DU-145, LNCaP, IC70 class, 24 h treatment + 48 h compound-free
Description: as §1

[6] = system: Calu-, LXFL1121, NCI-H460; assay: CellTiter-Blue cell viability assay, lung cell lines (Active group); type: cell-based, human; set-up: key: Active: active (IC70<1 µM); Inactive: inactive (IC70>1 µM, and usually >10 µM); details: IC70 class, 24 h treatment + 48 h compound-free
Description: as §1

[7] = system: MAXFTN401, BT-474, HCC-1937, MCF7, MDA-MB-231; assay: CellTiter-Blue cell viability assay, breast cell lines (Inactive group); type: cell-based, human; set-up: key: Active: active (IC70<1 µM); Inactive: inactive (IC70>1 µM, and usually >10 µM); details: Breast: MAXFTN401, BT-474, HCC-1937, MCF7, MDA-MB-231; IC70 class, 24 h treatment + 48 h compound-free
Description: as §1

[8] = system: A2780, EFO-21, EFO-27, OVCAR3; assay: CellTiter-Blue cell viability assay, ovarian cell lines (Active group); type: cell-based, human; set-up: key: Active: active (IC70<1 µM); Inactive: inactive (IC70>1 µM, and usually >10 µM); details: Ovarian: A2780, EFO-21, EFO-27, OVCAR3; IC70 class, 24 h treatment + 48 h compound-free
Description: as §1

CC(C)(C)c1[nH]cnc1/C=c1\[nH]c(=O)/c(=C/c2ccccc2)[nH]c1=O [Plinabulin]
Plinabulin Activity (OVXF899, OVXF1023): Inactive | Plinabulin Activity (PC-3): Inactive | Plinabulin Activity [1]: Active | Plinabulin Activity [2]: Inactive | IC70 (concentration causing a 70% reduction in the quantity of viable tumor cells) ([3]; 21 cell lines of the Active category): < 1.0 µM | IC70 (concentration causing a 70% reduction in the quantity of viable tumor cells) ([3]; 91% of the cell lines of the Inactive category): > 9.5 µM | Plinabulin Activity [4]: Active | Plinabulin Activity [5]: Active | Plinabulin Activity [6]: Active | Plinabulin Activity [7]: Inactive | Plinabulin Activity [8]: Active
